From paper PMC3749181, “Rapid Identification of Antifungal Compounds against Exserohilum rostratum Using High Throughput Drug Repurposing Screens” (PLoS ONE, 2013)
Like-named read-outs stand apart in the source and are kept apart here.

Legend:
[1] = test system: E. rostratum hyphal fragments; assay: hyphal fragment fungicidal ATP content assay (PBS, 1536-well); type: cell-based, Exserohilum rostratum; details: for Hyphae % Max. Resp. / Emax / Hyphae % M. Res.: 46 µM Amphotericin B = 100%; for Emax / IC50: Exserohilum rostratum; for IC50: read-out: Hyphae IC50
Experimental: (§1) Conidia and hyphae of E. rostratum were obtained as described by Richard et al., with the following modifications. Briefly, conidia were harvested from Potato Dextrose Agar (PDA) cultured media with 0.05% Tween 80, and the conidial suspension was filtered using a Cell Strainer (100 µm, BD Falcon REF 352340). After centrifugation at 700g for 10 min, the suspension was decanted and conidia were resuspended at 1×10^5 per ml in RPMI and counted in a hemocytometer. Hyphae were harvested from yeast extract peptone dextrose (YPD) culture media with 0.05% Tween 80. Hyphal fragments were sized by vortexing 15 sec twice with 0.4 mm glassbeads, and the hyphae suspension was filtered by cheese cloth twice. […] To normalize concentrations of hyphal fragments for batch to batch consistency, carbohydrate analysis was performed by a phenol-sulfuric acid method as previously described. The final stock concentration of hyphae was adjusted to 1.0 (OD490) per 100 µl.
(§2) The ATPLite assay kit, consisting of luciferase/luciferin and detergent, was used to quantitate cellular ATP levels as a marker for cell viability (Table 1). For assay development, hyphal fragments or conidia in PBS were plated in a seeding density of 3,750, 7,500 and 15,000 cellular particles/well with a final volume of 5 µl/well using the Multidrop-Combi dispenser in white 1536-well plates. Conidia or hyphae fragments were incubated for 24 h at 37°C in a 5% CO2 humidified atmosphere. ATPLite detection reagents were added at 4 µl/well. The assay plates were incubated at room temperature for 15 minutes before reading luminescence intensity on a ViewLux plate reader (Perkin Elmer, Waltham, MA). Conidia suspended in RPMI medium were inoculated at concentrations of 62.5, 125 and 250 conidia/well with a final volume of 5 µl/well in white 1536-well plates. The conidia assay was developed and optimized in the same way as the hyphal assay.
(§3) The LOPAC library (Sigma-Aldrich) has been extensively used for HTS assay validations, [18]. The NIH Chemical Genomics Center Pharmaceutical (NPC) collection was constructed in-house through a combined effort of compound purchasing and custom synthesis and recently expanded to 4096 compounds. […] 2.5 µl/well PBS was dispensed into 1536-well plates using a Multidrop-Combi dispenser. Compound in DMSO solution was transferred in a volume of 23 nl/well using a NX-TR pintool station (WAKO Scientific Solutions, San Diego, CA). This additional PBS step for compound addition was designed to prevent the potential fungal contamination of compound libraries. The hyphal fragments in PBS were then added at 2.5 µl/well for a final seeding density of 15,000 hyphal fragments/well using the Multidrop-Combi dispenser. The final compound concentration was 46 µM in the primary screen. The assay plates were incubated for 24 h at 30°C before the detection of cellular viability with the ATP content assay. Screen of conidia was performed in a similar way except that PBS was replaced with RPMI medium and conidia were plated for a final seeding density of 250 conidia/well.
(§4) The primary screen data and curve fitting were analyzed using software developed internally at the NIH Chemical Genomics Center (NCGC). Total signals for cellular viability (100% cellular viability) were calculated from the wells with DMSO solvent and the complete cell killing (0% cellular viability) was calculated from 46 µM amphotericin B treated wells. […] All values were expressed as the mean +/− SD (n≥3).

E. rostratum conidia = assay: conidia growth inhibition ATP content assay (RPMI, 1536-well); type: cell-based, Exserohilum rostratum; details: for Conidia % Max. Resp. / Conidia % M. Res. / Emax: 46 µM Amphotericin B = 100%; for IC50: read-out: Conidia IC50
Experimental: as §1, §2, §3, §4

SH-SY5Y cells = assay: SH-SY5Y cytotoxicity counter-screen (ATP content assay); type: cell-based, Human; details: for SH-SY5Y % Max. Resp.: Table 2, SH-SY5Y, inact. = no significant activity at 46 µM; for SH-SY5Y % M. Res.: Inact. = no significant activity at 46 µM
Experimental: Human neuroblastoma SH-SY5Y cell line (Catalog No. CRL-2266) was purchased from ATCC (Manassas, VA). SH-SY5Y cell line was cultured in 175-cm^2 tissue culture flasks (Costar, Cambridge, MA) with 30 ml of growth medium at 37°C in a 5% CO2 humidified atmosphere. Growth medium was made with Dulbecco's Modified Eagle Medium: Nutrient Mixture F-12 with 10% fetal bovine serum (FBS). Growth medium was replaced every other day and cells were passed at 75% confluence.
as §2
Two small known compound libraries including the LOPAC (1280 compounds) and approved drugs (4096 compounds) were screened in parallel using the above optimized assays for hyphae and conidia in 1536-well plates (Fig. 4). […] A mammalian SH-SY5Y cell line was used in parallel as a counter-screen with the same ATP content assay kit to assess the specificity of these compounds for E. rostratum.

[2] = Table 2, inact. = no significant activity in the primary screen
[3] = Table 2, 24 h, inact. = no significant activity in the primary screen
[4] = Table 2, inact. = no significant activity at 46 µM
[5] = Table 2, 24 h, inact. = no significant activity at the highest compound concentration (46 µM)
[6] = Table S1, Inact. = no significant activity in the primary screen, read-out: Hyphae % M. Res.
[7] = Table S1, Inact. = no significant activity in the primary screen
[8] = Table S1, Inact. = no significant activity at 46 µM
[9] = Table S1, Inact. = no significant activity at the highest compound concentration (46 µM)
[10] = Table S1, 46 µM Amphotericin B = 100%
[11] = Table 2, inact. = no significant activity in the primary screen, read-out: Hyphae % Max. Resp.
[12] = Exserohilum rostratum, 24 h, Table 2, 24 h, inact. = no significant activity at the highest compound concentration (46 µM)
[13] = Exserohilum rostratum, Table 2, inact. = no significant activity at 46 µM, read-out: Conidia % Max. Resp.
[14] = Exserohilum rostratum, Table S1, Inact. = no significant activity at 46 µM, read-out: Conidia % M. Res.

Row | Molecule | SH-SY5Y % Max. Resp. (SH-SY5Y cells; 46 µM Amphotericin B = 100%) | SH-SY5Y % Max. Resp. (SH-SY5Y cells) | Emax [1, 6] [%] | SH-SY5Y % M. Res. (SH-SY5Y cells; [10]) | SH-SY5Y IC50 (SH-SY5Y cells; [9]) | Emax [1, 11] [%] | IC50 [1, 3] [µM] | IC50 (E. rostratum conidia; [12]) [µM] | Emax (E. rostratum conidia; [13]) [%] | Emax (E. rostratum conidia; [14]) [%] | also measured
1 | O=C(Nc1ccc(Br)cc1)c1cc(Br)cc(Br)c1O [Tribromosalan] | inact. | inact. |  |  |  |  |  |  |  |  | Hyphae % Max. Resp. [1, 2]: inact.; Hyphae IC50 [1, 3]: inact.; Conidia % Max. Resp. (E. rostratum conidia; [4]): 99%; IC50 (E. rostratum conidia; [5]): 1.93 µM
2 | CN(C/C=C/C#CC(C)(C)C)Cc1cccc2ccccc12 [Terbinafine] |  |  | 64 | Inact. | Inact. |  |  |  |  |  | IC50 [1, 7]: 34 µM; Conidia % M. Res. (E. rostratum conidia; [8]): Inact.; Conidia IC50 (E. rostratum conidia; [9]): Inact.
3 | Cc1ccc(/C=N/n2c(-c3ccccc3)csc2=S)cc1 [Fezatione] |  |  |  | Inact. | Inact. |  |  |  |  |  | Hyphae % M. Res. [1, 7]: Inact.; Hyphae IC50 [1, 7]: Inact.; Conidia % M. Res. (E. rostratum conidia; [8]): Inact.; Conidia IC50 (E. rostratum conidia; [9]): Inact.
4 | Clc1ccc(C(Cn2ccnc2)OCc2ccsc2Cl)c(Cl)c1 (stereo not drawn) [Tioconazole] | inact. | inact. | 100 | Inact. | Inact. | 100 | 5.97 | 8.55 | 101 | 101 | 
5 | c1ccc(-c2ccc(C(c3ccccc3)n3ccnc3)cc2)cc1 (stereo not drawn) [Bifonazole] |  |  | 74 | 47% |  |  |  |  |  | 64 | IC50 [1, 7]: 11.8 µM; IC50 (E. rostratum conidia; Exserohilum rostratum, Table S1, Inact. = no significant activity at the highest compound concentration (46 µM)): 9.35 µM; IC50 (SH-SY5Y cells; Homo sapiens, SH-SY5Y, Table S1, Inact. = no significant activity at the highest compound concentration (46 µM)): 46.9 µM
6 | CN(C)C(=S)SC(=S)N(C)C [Tetramethylthiuram monosulfide] |  |  | 59 | Inact. |  |  |  |  |  | 23 | IC50 [1, 7]: 67.9 µM; IC50 (E. rostratum conidia; Exserohilum rostratum): 3.4 µM; SH-SY5Y IC50 (SH-SY5Y cells): Inact.
7 | Bleomycin sulfate | inact. | inact. |  |  |  |  |  |  |  |  | Hyphae % Max. Resp. [1, 2]: inact.; Hyphae IC50 [1, 3]: inact.; Conidia % Max. Resp. (E. rostratum conidia; [4]): 98%; IC50 (E. rostratum conidia): 1.24 µM
8 | O=C1C2CC=CCC2C(=O)N1SC(Cl)(Cl)Cl (stereo not drawn) [Captan] | 100% | 18.6% |  |  |  | 82 | 1.17 |  |  |  | Conidia % Max. Resp. (E. rostratum conidia; [4]): inact.; Conidia IC50 (E. rostratum conidia; [5]): inact.
9 | COCc1c(C(C)C)nc(C(C)C)c(/C=C/[C@@H](O)C[C@@H](O)CC(=O)O)c1-c1ccc(F)cc1 [Cerivastatin sodium] | inact. | inact. |  |  |  | 79 | 1.61 | 0.472 | 101 |  | 
10 | [N-]=[N+]=CC(=O)OC[C@H](N)C(=O)O [Azaserine] |  |  |  | Inact. | Inact. |  |  |  |  |  | Hyphae % M. Res. [1, 7]: Inact.; Hyphae IC50 [1, 7]: Inact.; Conidia % M. Res. (E. rostratum conidia; [8]): Inact.; Conidia IC50 (E. rostratum conidia; [9]): Inact.
11 | CC1(C)CCC(=Cc2ccc(Cl)cc2)C1(O)Cn1cncn1 (stereo not drawn) [Triticonazole] | inact. | inact. | 74 | Inact. | Inact. | 74 | 5.82 | 6.95 | 100 | 100 | 
12 | CNc1ccc2oc(C[C@H]3O[C@@]4(CC[C@H]3C)O[C@H]([C@H](C)C(=O)c3ccc[nH]3)[C@H](C)C[C@H]4C)nc2c1C(=O)O [Calcimycin] | 94% | 3.95% |  |  |  |  |  |  | 51 |  | Hyphae % Max. Resp. [1, 2]: inact.; Hyphae IC50 [1, 3]: inact.; IC50 (E. rostratum conidia; Exserohilum rostratum, 24 h): 0.735 µM
13 | CC(C)N1CCN(c2ccc(OCC3COC(Cn4cncn4)(c4ccc(Cl)cc4Cl)O3)cc2)CC1 (stereo not drawn) [Terconazole] | inact. | inact. | 100 | Inact. | Inact. | 100 | 6.12 | 9.06 | 101 | 101 | 
14 | Oc1c(Cl)cc(Cl)cc1Sc1cc(Cl)cc(Cl)c1O [Bithionol] | inact. | inact. |  |  |  |  |  | 1.87 | 100 |  | Hyphae % Max. Resp. [1, 2]: inact.; Hyphae IC50 [1, 3]: inact.
